As usually defined, the Kd is the concentration at which binding is half-saturated.

T1 sequence (O60674 849-1124 Y1007F/Y1008F limits assumed): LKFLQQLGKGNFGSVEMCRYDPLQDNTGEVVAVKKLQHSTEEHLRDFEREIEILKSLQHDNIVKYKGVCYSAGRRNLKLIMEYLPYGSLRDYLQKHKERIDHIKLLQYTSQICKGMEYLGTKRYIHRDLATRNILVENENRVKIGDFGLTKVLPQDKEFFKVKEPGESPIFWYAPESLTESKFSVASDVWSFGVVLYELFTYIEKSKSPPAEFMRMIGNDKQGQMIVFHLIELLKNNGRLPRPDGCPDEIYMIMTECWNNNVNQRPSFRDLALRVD

The first assay addresses T1, JAK2 (JH1 domain-catalytic, Y1007F,Y1008F) kinase (Homo sapiens, UniProt O60674, Y1007F/Y1008F).
T1 construct: made in house; host or cells: transiently transfected HEK293 cells
As to the kind of experiment: JAK2 Binding Assay (JAK2 JH1 Domain Binding Assay).
Settings: not given
Turning to `Cn1cc(C(F)(F)F)cc(Nc2nc3ncc(Oc4ccnc(NC(=O)CF)c4)c(Cl)c3n2C)c1=O` [Example I-76, N-(4-((7-chloro-1-methyl-2-((1-methyl-2-oxo-5-(trifluoromethyl)-1,2-dihydropyridin-3-yl)amino)-1H-imidazo[4,5-b]pyridin-6-yl)oxy)pyridin-2-yl)-2-fluoroacetamide], the dissociation constant (Kd) is under 0.01 µM.

As to `Cn1cc(C(F)(F)F)cc(Nc2nc3ncc(Oc4ccnc(NC(=O)CF)c4)c(C#N)c3n2C)c1=O` [Example I-84, N-(4-((7-cyano-1-methyl-2-((1-methyl-2-oxo-5-(trifluoromethyl)-1,2-dihydropyridin-3-yl)amino)-1H-imidazo[4,5-b]pyridin-6-yl)oxy)pyridin-2-yl)-2-fluoroacetamide], the equilibrium dissociation constant (Kd) is under 0.01 µM.

The same assay, now with this note: JAK2 JH1 domain binding, qPCR detection; read-out: JAK2 Kd.
In the case of `CN1CCn2nc(Nc3nc4ncc(Oc5ccnc(NC(=O)O[C@H]6CCOC6)c5)c(Cl)c4n3C)cc2C1=O` [Example I-55, (S)-tetrahydrofuran-3-yl(4-((7-chloro-1-methyl-2-((5-methyl-4-oxo-4,5,6,7-tetrahydropyrazolo[1,5-a]pyrazin-2-yl)amino)-1H-imidazo[4,5-b]pyridin-6-yl)oxy)pyridinyl)carbamate], the Kd fell in the range of 1 to 5 µM.

As for `CNC(=O)Nc1cc(Oc2cnc3nc(Nc4cc5n(n4)CCC54CCC4)n(C)c3c2C#N)ccn1` [Example I-58, 1-(4-((7-cyano-2-((5′,6′-dihydrospiro[cyclobutane-1,4′-pyrrolo[1,2-b]pyrazol]-2′-yl)amino)-1-methyl-1H-imidazo[4,5-b]pyridin-6-yl)oxy)pyridin-2-yl)-3-methylurea], the equilibrium dissociation constant (Kd) is under 0.01 µM.

On to `CO[C@H]1CCN(C(=O)Nc2cc(Oc3cnc4nc(Nc5cc6n(n5)CCC65CCC5)n(C)c4c3C#N)ccn2)C1` [Example I-59, (S)-N-(4-((7-cyano-2-((5′,6′-dihydrospiro[cyclobutane-1,4′-pyrrolo[1,2-b]pyrazol]-2′-yl)amino)-1-methyl-1H-imidazo[4,5-b]pyridin-6-yl)oxy)pyridin-2-yl)-3-methoxypyrrolidine-1-carboxamide], for which the Kd is under 0.01 µM.

Regarding `COC(=O)Nc1cc(Oc2cnc3nc(Nc4cc5n(n4)CCCC54CC4)n(C)c3c2C#N)ccn1` [Example I-63, methyl (4-((7-cyano-2-((6′,7′-dihydro-5′H-spiro[cyclopropane-1,4′-pyrazolo[1,5-a]pyridin]-2′-yl)amino)-1-methyl-1H-imidazo[4,5-b]pyridin-6-yl)oxy)pyridin-2-yl)carbamate], the Kd is under 0.01 µM.

As to `CNC(=O)Nc1cc(Oc2cnc3nc(Nc4cc5n(n4)CCCC54CC4)n(C)c3c2C#N)ccn1` [Example I-64, 1-(4-((7-cyano-2-((6′,7′-dihydro-5′H-spiro[cyclopropane-1,4′-pyrazolo[1,5-a]pyridin]-2′-yl)amino)-1-methyl-1H-imidazo[4,5-b]pyridin-6-yl)oxy)pyridin-2-yl)-3-methylurea], the dissociation constant Kd is under 0.01 µM.

As for `CN(C)C(=O)Nc1cc(Oc2cnc3nc(Nc4cc5n(n4)CCCC54CC4)n(C)c3c2C#N)ccn1` [Example I-65, 3-(4-((7-cyano-2-((6′,7′-dihydro-5′H-spiro[cyclopropane-1,4′-pyrazolo[1,5-a]pyridin]-2′-yl)amino)-1-methyl-1H-imidazo[4,5-b]pyridin-6-yl)oxy)pyridin-2-yl)-1,1-dimethylurea], the Kd was under 0.01 µM.

Turning to `Cn1c(Nc2cc3n(n2)CCC32CCC2)nc2ncc(Oc3ccnc(NC(=O)OC4COC4)c3)c(C#N)c21` [Example I-66, oxetan-3-yl (4-((7-cyano-2-((5′,6′-dihydrospiro[cyclobutane-1,4′-pyrrolo[1,2-b]pyrazol]-2′-yl)amino)-1-methyl-1H-imidazo[4,5-b]pyridin-6-yl)oxy)pyridin-2-yl)carbamate], the Kd was under 0.01 µM.

`CN(C)C(=O)Nc1cc(Oc2cnc3nc(Nc4cc5n(n4)CCOCC5(C)C)n(C)c3c2C#N)ccn1` [Example I-67, 3-(4-((7-cyano-2-((4,4-dimethyl-4,5,7,8-tetrahydropyrazolo[1,5-d][1,4]oxazepinyl)amino)-1-methyl-1H-imidazo[4,5-b]pyridin-6-yl)oxy)pyridin-2-yl)-1,1-dimethylurea]: the Kd is under 0.01 µM.

Regarding `COC(=O)Nc1cc(Oc2cnc3nc(Nc4cc5n(n4)CCOCC5(C)C)n(C)c3c2C#N)ccn1` [Example I-68, methyl(4-((7-cyano-2-((4,4-dimethyl-4,5,7,8-tetrahydropyrazolo[1,5-d][1,4]oxazepin-2-yl)amino)-1-methyl-1H-imidazo[4,5-b]pyridin-6-yl)oxy)pyridin-2-yl)carbamate], the Kd was under 0.01 µM.

As to `CNC(=O)Nc1cc(Oc2cnc3nc(Nc4cc5n(n4)CCOCC5(C)C)n(C)c3c2C#N)ccn1` [Example I-69, 1-(4-((7-cyano-2-((4,4-dimethyl-4,5,7,8-tetrahydropyrazolo[1,5-d][1,4]oxazepin-2-yl)amino)-1-methyl-1H-imidazo[4,5-b]pyridin-6-yl)oxy)pyridin-2-yl)-3-methylurea], the Kd is under 0.01 µM.

Regarding `CN(C)C(=O)Nc1cc(Oc2cnc3nc(Nc4cc5n(n4)CCN5C(C)(C)C)n(C)c3c2C#N)ccn1` [Example I-70, 3-(4-((2-((1-(tert-butyl)-2,3-dihydro-1H-imidazo[1,2-b]pyrazol-6-yl)amino)-7-cyano-1-methyl-1H-imidazo[4,5-b]pyridin-6-yl)oxy)pyridin-2-yl)-1,1-dimethylurea], the Kd fell in the range of 0.01 to 0.05 µM.

For `COC(=O)Nc1cc(Oc2cnc3nc(Nc4cc5n(n4)CCN5C(C)(C)C)n(C)c3c2C#N)ccn1` [Example I-71, methyl(4-((2-((1-(tert-butyl)-2,3-dihydro-1H-imidazo[1,2-b]pyrazol-6-yl)amino)-7-cyano-1-methyl-1H-imidazo[4,5-b]pyridin-6-yl)oxy)pyridin-2-yl)carbamate], the Kd was under 0.01 µM.

In the case of `CNC(=O)Nc1cc(Oc2cnc3nc(Nc4cc5n(n4)CCN5C(C)(C)C)n(C)c3c2C#N)ccn1` [Example I-72, 1-(4-((2-((1-(tert-butyl)-2,3-dihydro-1H-imidazo[1,2-b]pyrazol-6-yl)amino)-7-cyano-1-methyl-1H-imidazo[4,5-b]pyridin-6-yl)oxy)pyridin-2-yl)-3-methylurea], the Kd was under 0.01 µM.

As for `CN(C)C(=O)Nc1cc(Oc2cnc3nc(Nc4cc5n(n4)CC(C)(C)OC5)n(C)c3c2C#N)ccn1` [Example I-73, 3-(4-((7-cyano-2-((6,6-dimethyl-6,7-dihydro-4H-pyrazolo[5,1-c][1,4]oxazin-2-yl)amino)-1-methyl-1H-imidazo[4,5-b]pyridin-6-yl)oxy)pyridin-2-yl)-1,1-dimethylurea], the Kd is 0.01 to 0.05 µM.

With `Cn1cc(C(F)(F)F)cc(Nc2nc3ncc(Oc4ccnc(NC(=O)C[C@H]5CCCCO5)c4)c(C#N)c3n2C)c1=O` [Example I-74-b], the dissociation constant (Kd) is under 0.01 µM.

On to `CC(=O)Nc1cc(Oc2cnc3nc(Nc4cc(C(F)(F)F)cn(C)c4=O)n(C)c3c2)ccn1` [Example I-77, N-(4-((1-methyl-2-((1-methyl-2-oxo-5-(trifluoromethyl)-1,2-dihydropyridin-3-yl)amino)-1H-imidazo[4,5-b]pyridin-6-yl)oxy)pyridin-2-yl)acetamide], for which the Kd is under 0.01 µM.

For `COc1c(Oc2ccnc(NC(C)=O)c2)cnc2nc(Nc3cc(C(F)(F)F)cn(CCO)c3=O)n(C)c12` [Example I-80, N-(4-((2-((1-(2-hydroxyethyl)-2-oxo-5-(trifluoromethyl)-1,2-dihydropyridin-3-yl)amino)-7-methoxy-1-methyl-1H-imidazo[4,5-b]pyridin-6-yl)oxy)pyridin-2-yl)acetamide], the Kd is under 0.01 µM.

Take `CC(=O)Nc1cc(Oc2cnc3nc(Nc4cc(C(F)(F)F)cn(CCO)c4=O)n(C)c3c2C#N)ccn1` [Example I-81]: the Kd is under 0.01 µM.

`[2H]C([2H])([2H])n1cc(C(F)(F)F)cc(Nc2nc3ncc(Oc4ccnc(NC(C)=O)c4)c(Cl)c3n2C)c1=O` [Example I-82, N-(4-((7-chloro-1-methyl-2-((1-(methyl-d3)-2-oxo-5-(trifluoromethyl)-1,2-dihydropyridin-3-yl)amino)-1H-imidazo[4,5-b]pyridin-6-yl)oxy)pyridin-2-yl)acetamide]: the Kd is under 0.01 µM.

For `[2H]C([2H])([2H])n1cc(C(F)(F)F)cc(Nc2nc3ncc(Oc4ccnc(NC(C)=O)c4)c(C#N)c3n2C)c1=O` [Example I-83, N-(4-((7-cyano-1-methyl-2-((1-(methyl-d3)-2-oxo-5-(trifluoromethyl)-1,2-dihydropyridin-3-yl)amino)-1H-imidazo[4,5-b]pyridin-6-yl)oxy)pyridin-2-yl)acetamide], the equilibrium dissociation constant (Kd) is under 0.01 µM.

Regarding `COCCNCC(=O)Nc1cc(Oc2cnc3nc(Nc4cc(C(F)(F)F)cn(C)c4=O)n(C)c3c2Cl)ccn1` [Example I-85, N-(4-((7-chloro-1-methyl-2-((1-methyl-2-oxo-5-(trifluoromethyl)-1,2-dihydropyridin-3-yl)amino)-1H-imidazo[4,5-b]pyridin-6-yl)oxy)pyridin-2-yl)-2-((2-methoxyethyl)amino)acetamide], the Kd was under 0.01 µM.

As to `Cn1cc(C(F)(F)F)cc(Nc2nc3ncc(Oc4ccnc(NC(=O)CO)c4)c(Cl)c3n2C)c1=O` [Example I-86, N-(4-((7-chloro-1-methyl-2-((1-methyl-2-oxo-5-(trifluoromethyl)-1,2-dihydropyridin-3-yl)amino)-1H-imidazo[4,5-b]pyridin-6-yl)oxy)pyridin-2-yl)hydroxyacetamide], the Kd is under 0.01 µM.

For the compound `Cn1cc(C(F)(F)F)cc(Nc2nc3ncc(Oc4ccnc(NC(=O)CNCCF)c4)c(Cl)c3n2C)c1=O` [Example I-87, N-(4-((7-chloro-1-methyl-2-((1-methyl-2-oxo-5-(trifluoromethyl)-1,2-dihydropyridin-3-yl)amino)-1H-imidazo[4,5-b]pyridin-6-yl)oxy)pyridin-2-yl)-2-((2-fluoroethyl)amino)acetamide], the Kd is under 0.01 µM.

Consider `Cn1c(Nc2cc(C(F)(F)F)cn(CCO)c2=O)nc2ncc(Oc3ccnc(NC(=O)C4CC4)c3)c(C#N)c21` [Example I-89, N-(4-((7-cyano-2-((1-(2-hydroxyethyl)-2-oxo-5-(trifluoromethyl)-1,2-dihydropyridin-3-yl)amino)-1-methyl-1H-imidazo[4,5-b]pyridin-6-yl)oxy)pyridin-2-yl)cyclopropanecarboxamide], for which the Kd is under 0.01 µM.
